Experimental data: patent publication US12448655B2, “Antibiotic susceptibility of microorganisms and related methods and systems” (CALIFORNIA INSTITUTE OF TECHNOLOGY, priority 2017, dated 2025)

Columns and labels:
Assay type in all cases: cell-based
Neisseria gonorrhoeae [1] = assay: AST by inaccessible DNA, 1 incubation step with Triton X-100 and DNaseI, qPCR (Example 1)
Description: An antibiotic susceptibility test can be performed with methods herein described comprising 15-minute co-incubation of the sample with antibiotics and an enhancing treatment followed by cell lysis, and detection of differences in amounts of detected DNA between the antibiotic-susceptible and a corresponding control but not in antibiotic-resistant NG isolates with respect to a corresponding control.
For each isolate, two incubation tubes were prepared in 2 mL purple cap tubes (VWR Cat #89004-298), following the indication in table x below, titled “Antibiotic Exposure per 500 μL”. Add Triton X (enhancer), DNaseI (Cat: M0303L) (degrader), NaHCO3 (conditioner).
The antibiotic incubation/exposure was performed on a heat-shake block fit to 2 mL purple cap tubes (VWR Cat #89004-298). The particular shake-block was measured with a thermocouple to ensure the temperature inside the tubes with 500 μL of media is 37° C. (settings 38° C. and 1000 rpm shaking), qPCR was used for NA amplification
Extraction was performed following “DEB Extraction” description in the general methods using Eppendorf tubes. Vortex samples briefly (2 seconds) and centrifuge before transferring 10 μL of the sample to 90 μL of the extraction buffer. • 9. Optionally, continue incubation of the treated and untreated samples for a control of the antibiotic efficacy over >15 minute exposures
The “qPCR” description in the general methods was followed. All DEB-extracted DNA were quantified using a primer mix=(10 µM forward and reverse) targeting N. gonorrhoeae porA gene. Samples were run in qPCR triplicates (10 μL reactions) at an annealing temperature 62° C. The primers target the porA gene. • 11. Data analysis is performed on the raw cq measurements obtained from the qPCR instrument

Klebsiella pneumoniae = assay: Minimum inhibitory concentrations (MICs) of Enterobacteriaceae clinical isolates
Excerpt: (§1) Clinical isolates referenced, minimum inhibitory concentrations (MICs), and categorical susceptibility based on CLSI breakpoints The below list of organisms are examples of clinically-relevant susceptible and resistant Enterobacteriaceae clinical isolates. Minimum inhibitory concentrations (MICs) are provided in μg/mL for the antibiotics listed.
(§2) Isolates, growth conditions, and antibiotic exposure conditions. 25 de-identified clinical isolates were obtained from the UCLA Clinical Microbiology Laboratory (CML) and the CDC's Enterobacteriaceae Carbapenem Breakpoint panel. In the case of isolates obtained from the UCLA CML, MICs were determined as described previously. Genotypic testing of the two Ec and two Kp isolates selected for their lack of known β-lactamase genes was performed by UCLA CML using a previously published assay and separately at the Keck School of Medicine of USC using the FDA-approved Cepheid Xpert® Carba-R test. Whole genome sequencing of the single Ebs isolate selected for its lack of known resistance genes was performed by the CDC [3]. All isolates were stored as glycerol stocks at −80° C. Glycerol stocks were streaked onto Trypticase Soy Agar with 5% sheep's blood (Becton Dickinson, Franklin Lakes, NJ, USA) and grown overnight at 37° C. Prior to experiments, a small clump of cells was resuspended in 2 mL Brain Heart Infusion Broth (BHI, Becton Dickinson) at 37° C.+5% CO2 with 500 rpm shaking for 2 to 4 h until visibly turbid. OD600 of the cultures was then measured, and working cultures prepared at an OD600 of 0.01-0.07 and grown for 50-145 min at 37° C.+5% CO2 with 500 rpm. Working cultures were then diluted 10× into control and treated aliquots for antibiotic exposure. For validation experiments, antibiotic exposure was performed in 100 μL volumes consisting of 80 μL Mueller Hinton II Broth (Becton Dickinson), 5 μL nuclease-free H2O (NF—H2O), 5 μL 20× antibiotic stock solution, and 10 μL of working culture. In control aliquots, antibiotic stock solution was replaced with NF—H2O. For filtration experiments, antibiotic exposure was performed in 100 μL volumes consisting of 65 μL Mueller Hinton II Broth (Becton Dickinson), 21 μL nuclease-free H2O (NF—H2O), 4 μL 25× antibiotic stock solution, and 10 μL of working culture. In control aliquots, antibiotic stock solution was replaced with NF—H2O.

Escherichia coli = assay: as above
Excerpt: as §1, §2

Neisseria gonorrhoeae [2] = assay: Two-step nuc-aAST on Ng clinical urine samples and their isolates, TNP enhancer (Examples 35, 37); conditions: antibiotic-resistant samples and isolates (Sample #3, #4); 1 μg/mL 30 min, then TNP 3-5 min, DNaseI
Description: Clinical sample nuc-aAST. Suspensions of clinical urine samples were prepared as described above. All suspensions were generated, and the ABX-exposure step initiated within 90 min of sample donation. The initial ABX-exposure was performed by incubating 50 μL control and treated samples at 37° C. in PCR tube strips on a BioRad C1000 Thermal Cycler. Treated samples consisted of […] of suspension and 1.25 μL aliquot of PEN or CRO (40 μg/mL). ABX were replaced with NF—H2O in control samples. After 30 min of incubation, samples were vortexed and quickly spun on a benchtop microcentrifuge (Labnet) at 2,000×g for 2-3 sec, and 2.7 μL TNP (100 mM) was added to each sample for the enhancement step. Samples were then immediately vortexed, spun on a benchtop microcentrifuge (Labnet) at 2,000×g for 2-3 sec, and incubated at 37° C. for 3-5 min. After the enhancement step, 20 μL from each sample was extracted by diluting 5× in QuickExtract DNA Extraction Solution (Lucigen) and heating for 6 min at 65° C. followed by 4 min at 98° C. on a BioRad C1000 Thermal Cycler. All sample handling following ABX exposure was performed using a multichannel pipette; qPCR and calculation of percentage accessibility were performed as previously described, with the modification that the qPCR mix included 2 μL of template per 10 μL PCR reaction instead of 1 μL template per 10 μL reaction. […]

| Compound | Cqs of treated sample compared with control (no ABX) (Neisseria gonorrhoeae [1]; ceftriaxone-resistant isolate ng_30, 15-minute incubation with 1% TritonX-100 and DNaseI) | difference in relative concentrations (inaccessible DNA) control vs treated (Neisseria gonorrhoeae [1]; ceftriaxone-susceptible isolate ng_3, 15-minute incubation with 1% TritonX-100 and DNaseI) [fold] | Cq difference between control and antibiotic-treated sample (FIG. 3 bars (a) and (b)) (Neisseria gonorrhoeae [1]; ceftriaxone-susceptible isolate ng_3, 15-minute incubation with 1% TritonX-100 and DNaseI in MH media) [Cq] | Antibiotic MICs (Klebsiella pneumoniae; isolate Kp_1) | Antibiotic MICs (Klebsiella pneumoniae; isolate Kp_2) | Antibiotic MICs (Klebsiella pneumoniae; isolate Kp_7) [µg/mL] | Antibiotic MICs (Klebsiella pneumoniae; isolate Kp_8) [µg/mL] | Antibiotic MICs (Escherichia coli; isolate Ec_1) | Antibiotic MICs (Escherichia coli; isolate Ec_2) | Antibiotic MICs (Escherichia coli; isolate Ec_3) | Antibiotic MICs (Escherichia coli; isolate Ec_4) | Antibiotic MICs (Escherichia coli; isolate Ec_38) [µg/mL] | Antibiotic MICs (Escherichia coli; isolate Ec_39) [µg/mL] | Antibiotic MICs (Escherichia coli; isolate Ec_40) | Antibiotic MICs (Escherichia coli; isolate Ec_41) [µg/mL] | mean percentage accessibility of DNA (Neisseria gonorrhoeae [2]) [%] |
| --- | --- | --- | --- | --- | --- | --- | --- | --- | --- | --- | --- | --- | --- | --- | --- | --- |
| CO/N=C(\C(=O)N[C@@H]1C(=O)N2C(C(=O)O)=C(CSc3nc(=O)c(=O)[nH]n3C)CS[C@H]12)c1csc(N)n1 [CRO, ceftriaxone] | not distinguishable from the control | 11 | 3.5 | <=1 μg/mL | <=1 μg/mL | >32 | >32 | <=1 μg/mL | <=1 μg/mL | <=1 μg/mL | <=1 μg/mL | >32 | >32 | >=64 μg/mL | >32 |  |
| penicillin |  |  |  |  |  |  |  |  |  |  |  |  |  |  |  | < 46 |
